In the test the target is KDR kinase (VEGF receptor) (Homo sapiens, UniProt P35968). The experiment in a line: KDR kinase activity assay (FlashPlate, 33P-ATP phosphorylation of peptide substrate PLCγ1). It is filed as biochemical. As to conditions: purified enzyme, 5 μM cold ATP, pH 7.4, RT 1 h. As to the method:
The tyrosine kinase receptor KDR is the test target. KDR plays a key role in the growth of endothelium and in angiogenesis and is consequently also involved in the development of tumors. KDR is consequently an important therapeutic target molecule for cancer diseases and other proliferative diseases. In the test, the activity of the KDR kinase is measured on the basis of the phosphorylation of a specific peptide substrate.
The KDR kinase was determined using purified enzyme in 384-well microtiter plates (Coated FlashPlates, NEN Life Science). The enzyme activities were determined by means of phosphorylating a specific peptide substrate. A previously prepared series of dilutions of the eurotinones having concentrations of 100, 50, 25, 12.5, 6.25, 3.125, 1.5625, 0.7813, 0.3906, 0.195, 0.094, 0.047 and 0 μM were pipetted, in the corresponding order, into the experimental assays. The reaction mixture (radioactively labeled ATP, buffer solution at pH 7.4 and enzyme solutions) was then added and the whole was incubated at RT for 1 h.
Enzyme: KDR kinase (VEGF receptor)
50 mM MOPS, pH7.4, 10 mM MgCl2, 2 mM DTT, 2.5 mM EDTA,
ATP solution: 25μCi of ^33P-γ-ATP/ml and 12.5 μM cold ATP
KDR enzyme solution: 3.5 μg/ml in kinase buffer
384-well FlashPlates were coated, at […] and overnight, with 60 μl (1.2 μg/well) of the peptide substrate and then washed 3×with in each case 80 μl of PBS. The plates which had been coated in this way can be stored for a relatively short time at 4° C. and for a longer period at −20° C. […]
The plates were subsequently washed three times with 75 μl of washing solution in each case and the radioactivity is measured over 30 seconds in a MicroBeta counter (Wallac). […]
The activity of the KDR kinase was measured by way of the incorporation of radioactive phosphate from ATP into the substrate, and the inhibitory effect of the eurotinone (IC50) was calculated from this incorporation.
The inhibition was calculated as: […]
KDR kinase (VEGF receptor), sequence (P35968 20-1356): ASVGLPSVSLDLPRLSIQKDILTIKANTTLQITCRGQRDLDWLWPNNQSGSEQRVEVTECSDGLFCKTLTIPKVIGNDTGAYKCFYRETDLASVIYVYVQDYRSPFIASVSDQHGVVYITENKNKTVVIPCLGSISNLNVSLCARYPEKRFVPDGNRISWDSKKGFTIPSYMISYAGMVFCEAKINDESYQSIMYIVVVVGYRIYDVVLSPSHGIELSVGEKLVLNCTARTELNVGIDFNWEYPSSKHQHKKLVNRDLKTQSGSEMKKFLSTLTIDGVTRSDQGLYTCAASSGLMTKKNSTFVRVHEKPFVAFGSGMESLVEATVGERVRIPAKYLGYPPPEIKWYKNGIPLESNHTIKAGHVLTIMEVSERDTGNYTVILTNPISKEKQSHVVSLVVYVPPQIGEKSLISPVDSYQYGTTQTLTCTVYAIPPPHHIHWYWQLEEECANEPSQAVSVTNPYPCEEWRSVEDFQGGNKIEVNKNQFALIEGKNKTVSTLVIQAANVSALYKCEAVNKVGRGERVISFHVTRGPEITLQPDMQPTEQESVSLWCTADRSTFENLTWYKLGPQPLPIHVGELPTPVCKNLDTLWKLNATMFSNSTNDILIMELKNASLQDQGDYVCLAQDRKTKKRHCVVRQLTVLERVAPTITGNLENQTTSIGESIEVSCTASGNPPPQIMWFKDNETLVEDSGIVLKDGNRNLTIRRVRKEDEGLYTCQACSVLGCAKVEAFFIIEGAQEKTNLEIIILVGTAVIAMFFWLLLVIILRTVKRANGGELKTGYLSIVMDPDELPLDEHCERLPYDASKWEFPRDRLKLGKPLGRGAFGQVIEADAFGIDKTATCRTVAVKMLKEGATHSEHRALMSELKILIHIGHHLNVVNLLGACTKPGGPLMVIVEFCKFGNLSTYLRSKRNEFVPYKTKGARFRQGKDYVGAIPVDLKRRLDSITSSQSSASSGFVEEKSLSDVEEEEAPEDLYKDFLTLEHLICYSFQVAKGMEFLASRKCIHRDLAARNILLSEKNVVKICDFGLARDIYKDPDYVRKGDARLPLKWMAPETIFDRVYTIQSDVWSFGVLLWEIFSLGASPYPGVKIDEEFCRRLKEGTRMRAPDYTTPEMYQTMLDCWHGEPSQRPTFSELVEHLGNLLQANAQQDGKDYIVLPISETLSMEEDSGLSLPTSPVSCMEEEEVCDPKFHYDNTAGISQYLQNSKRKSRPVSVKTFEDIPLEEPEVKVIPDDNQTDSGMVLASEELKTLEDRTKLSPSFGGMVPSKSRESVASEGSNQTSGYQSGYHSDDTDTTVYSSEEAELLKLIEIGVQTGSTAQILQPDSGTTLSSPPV
In turn, `Cc1cc(O)c2c(c1O)Cc1cc(O)cc(O)c1OC2=O` [eurotinone (compound 1), eurotinone] registered an IC50 of 22 µM.

For the compound `COc1cc(O)cc2c1OC(=O)c1c(O)cc(C)c(O)c1C2` [2-methyleurotinone (compound 3), 2-methyleurotinone], the IC50 amounted to 18 µM.

Regarding `COc1cc(O)cc2c1OC(=O)c1c(OC)cc(C)c(O)c1C2` [2,12-dimethyleurotinone (compound 2), 2,12-dimethyleurotinone], half-maximal inhibition (IC50) required 155 µM.
